This series in a line: RP, Thermo Scientific Hypersil GOLD, 1.9 µm, 40 °C, 0.4 mL/min; A: water + 0.1% formic acid, pH 3; B: acetonitrile + 0.1% formic acid, pH 3; gradient (min/%B) 0/0 1/0 11/100 13/100 14/0 16/0. The conditions noted are these: stereoisomer not certain.

Structures can show the parent of a compound that is named as a salt.

Take `O=C(O)C=Cc1ccc(O)cc1` [4-COUMARATE]: the LC retention time stood at 5.43 min.

Regarding `NC(N)=NCCCC(=O)O` [4-GUANIDINOBUTANOATE], the LC retention time was 0.84 min.

Turning to `N[C@H](C(=O)O)c1ccc(O)cc1` [4-HYDROXY-L-PHENYLGLYCINE], the LC retention time came to 0.67 min.

As to `O=Cc1ccc(O)cc1` [4-HYDROXYBENZALDEHYDE], the LC retention time came out at 5.13 min.

Consider `O=C(O)Cc1ccc(O)cc1` [4-Hydroxyphenylacetic acid], for which the LC retention time was 4.88 min.

`O=C(O)Cc1cnc[nH]1` [4-IMIDAZOLEACETATE]: the LC retention time amounted to 0.67 min.

With `Cc1ccc(O)c(O)c1` [4-METHYLCATECHOL], the LC retention time stood at 6.6 min.

For `Cc1ccncc1` [4-Methylpyridine (4-Picoline)], the LC retention time is 0.87 min.

Regarding `Cc1ncc(CO)c(C(=O)O)c1O` [4-PYRIDOXATE], the LC retention time is 1.73 min.

On to `O=C(O)c1ccnc2ccccc12` [4-QUINOLINECARBOXYLIC ACID], for which the LC retention time is 1.29 min.

With `CC1OC(n2cnc3c(N)ncnc32)C(O)C1O` (stereo not drawn) [5'-DEOXYADENOSINE], the LC retention time amounted to 3.66 min.

As to `Cc1cc2nc[nH]c2cc1C` [5-6 DIMETHYLBENZIMIDAZOLE], the LC retention time is 5.05 min.

As to `NCC(=O)CCC(=O)O` [5-AMINOLEVULINATE], the LC retention time was determined as 0.64 min.

For `NCCCCC(=O)O` [5-AMINOPENTANOATE], the LC retention time came out at 0.71 min.

As to `Nc1cncc(C(=O)O)c1` [5-Aminopyridine-3-carboxylic acid], the LC retention time turned out to be 0.74 min.

With `NCC(O)CCC(N)C(=O)O` (stereo not drawn) [5-HYDROXYLYSINE], the LC retention time was determined as 0.57 min.

As to `O=c1[nH]cc(CO)c(=O)[nH]1` [5-HYDROXYMETHYLURACIL], the LC retention time was 0.82 min.

Regarding `NC(Cc1c[nH]c2ccc(O)cc12)C(=O)O` (stereo not drawn) [5-HYDROXYTRYPTOPHAN], the LC retention time turned out to be 1.99 min.

As for `Oc1ccc2[nH]ccc2c1` [5-Hydroxyindole], the LC retention time amounted to 4.72 min.

In the case of `O=C(O)c1cncc(O)c1` [5-Hydroxynicotinic acid], the LC retention time came to 0.83 min.

On to `Cc1cnc(=O)[nH]c1N` [5-METHYLCYTOSINE], for which the LC retention time amounted to 0.7 min.

For `O=C1CCCCO1` [5-VALEROLACTONE], the LC retention time was 6.54 min.

For `O=C(O)c1ccc(CO)o1` [5-hydroxymethyl-2-furancarboxylic acid], the LC retention time was 3.49 min.

On to `CC(CCC(=O)O)C1CCC2C3CCC4CC(=O)CCC4(C)C3CCC12C` (stereo not drawn) [5b-cholanic acid-3-ONE], for which the LC retention time was 10.7 min.

Turning to `CC(CCC(=O)O)C1CCC2C3C(O)C(O)C4CC(O)CCC4(C)C3CCC12C` (stereo not drawn) [5b-cholanic acid-3a-6a-7a-TRIOL], the LC retention time came to 7.96 min.

`CC(CCC(=O)O)C1CCC2C3CCC4CC(O)CCC4(C)C3CC(=O)C12C` (stereo not drawn) [5b-cholanic acid-3a-OL-12-ONE]: the LC retention time came out at 8.76 min.

On to `Nc1ccc(C(=O)O)cn1` [6-Aminopyridine-3-carboxylic acid], for which the LC retention time is 0.87 min.

As for `NCCc1cc(O)c(O)cc1O` [6-HYDROXYDOPAMINE], the LC retention time was 0.77 min.

For the compound `O=C(O)c1ccc(=O)[nH]c1` [6-HYDROXYNICOTINATE], the LC retention time stood at 1.5 min.

Regarding `CC(O)C(O)C1=Nc2c(nc(N)[nH]c2=O)NC1` [7-8-Dihydro-L-biopterin], the LC retention time was 0.82 min.

With `Cn1c[n+](C2OC(CO)C(O)C2O)c2nc(N)[nH]c(=O)c21` (stereo not drawn) [7-Methylguanosine], the LC retention time turned out to be 0.83 min.

On to `Cn1cnc2[nH]c(=O)[nH]c(=O)c21` [7-Methylxanthine], for which the LC retention time amounted to 2.15 min.

Consider `Cn1cnc2nc(N)[nH]c(=O)c21` [7-methylguanine], for which the LC retention time turned out to be 0.82 min.

Regarding `O=C(O)CCCCCCCCCO` [10-HYDROXYDECANOATE], the LC retention time was found to be 6.79 min.

As to `CC(=O)C1(O)CCC2C3CC=C4CC(O)CCC4(C)C3CCC21C` (stereo not drawn) [17a-Hydroxypregnenolone], the LC retention time is 0.67 min.

With `CC(=O)C1(O)CCC2C3CCC4=CC(=O)CCC4(C)C3CCC21C` (stereo not drawn) [17a-Hydroxyprogesterone], the LC retention time is 8.44 min.

Consider `CCCCCCCCC=CCCCCCCCC(=O)OCC(O)COP(=O)([O-])OCC[N+](C)(C)C` (stereo not drawn) [18-1_LysoPC], for which the LC retention time was found to be 0.61 min.

Turning to `CC(=O)C1(O)CCC2C3CCC4=CC(=O)CCC4(C)C3C(O)CC21C` (stereo not drawn) [21-Deoxycortisol], the LC retention time is 7.35 min.

For `CC(CCCC(C)(C)O)C1CCC2C3CC=C4CC(O)CCC4(C)C3CCC12C` (stereo not drawn) [25-HYDROXYCHOLESTEROL], the LC retention time came out at 11.9 min.

Turning to `NCCP(=O)(O)O` [(2-AMINOETHYL)PHOSPHONATE], the LC retention time was determined as 0.63 min.

On to `C/C(=C\C(=O)O)CC(=O)O` [(E)-3-Methylglutaconic acid], for which the LC retention time turned out to be 4.1 min.

Consider `C=C(C)C1CC=C(C)C(=O)C1` [(R)-(-)-Carvone], for which the LC retention time was 8.19 min.

As to `C=C(C)C1CC=C(CO)CC1` [(S)-(-)-Perillyl alcohol], the LC retention time worked out at 8.07 min.

With `Nc1ncnc2nc[nH]c12` [ADENINE], the LC retention time was found to be 0.74 min.

With `Nc1ncnc2c1ncn2C1OC(CO)C2OP(=O)(O)OC21` (stereo not drawn) [ADENOSINE 2'-3'-CYCLIC PHOSPHATE], the LC retention time was found to be 0.83 min.

As to `Nc1ncnc2c1ncn2C1OC(COP(=O)(O)O)C(O)C1O` (stereo not drawn) [ADENOSINE-MONOPHOSPHATE], the LC retention time is 0.77 min.

On to `Nc1ncnc2c1ncn2C1OC(CO)C(O)C1O` (stereo not drawn) [ADENOSINE], for which the LC retention time was 0.86 min.

Take `Nc1ncnc2c1ncn2C1OC(COP(=O)(O)OP(=O)(O)OC2OC(CO)C(O)C(O)C2O)C(O)C1O` (stereo not drawn) [ADP-GLUCOSE]: the LC retention time amounted to 1.27 min.

Regarding `NCCCCN=C(N)N` [AGMATINE SULFATE], the LC retention time was found to be 0.54 min.

Take `NC(=O)c1ncn(C2OC(COP(=O)(O)O)C(O)C2O)c1N` (stereo not drawn) [AICAR]: the LC retention time was found to be 0.76 min.

As for `NC(=O)NC1NC(=O)NC1=O` (stereo not drawn) [ALLANTOIN], the LC retention time was found to be 0.67 min.

With `CC(C)(O)C(=O)O` [ALPHA-HYDROXYISOBUTYRATE], the LC retention time was determined as 1.62 min.

As for `NC(CCCC(=O)O)C(=O)O` (stereo not drawn) [AMINOADIPATE], the LC retention time worked out at 0.67 min.

Regarding `CC(CN)C(=O)O` (stereo not drawn) [AMINOISOBUTANOATE], the LC retention time stood at 0.67 min.

Consider `Nc1ccccc1S(=O)(=O)O` [ANILINE-2-SULFONATE], for which the LC retention time stood at 1.42 min.

Turning to `Cn1cncc1CC(NC(=O)CCN)C(=O)O` (stereo not drawn) [ANSERINE], the LC retention time is 0.57 min.

With `Nc1ccccc1C(=O)O` [ANTHRANILATE], the LC retention time is 5.29 min.

For the compound `CCCCCCCCCCCCCCCCCCCC(=O)O` [ARACHIDATE], the LC retention time amounted to 13.5 min.

On to `O=C1OC(C(O)CO)C(O)=C1O` (stereo not drawn) [ASCORBATE], for which the LC retention time was found to be 0.78 min.

For `O=C(O)CCCCCCCC(=O)O` [AZELATE], the LC retention time turned out to be 6.12 min.

Regarding `CC(=O)OCC(=O)O` [Acetoxyacetic acid], the LC retention time is 1.93 min.

As to `Nc1ncnc2c1ncn2C1OC(CO)C(OP(=O)(O)O)C1O` (stereo not drawn) [Adenosine 3'-monophosphate free acid], the LC retention time worked out at 0.82 min.

Take `Nc1ccc(C(=O)NCC(=O)O)cc1` [Aminohippuric acid]: the LC retention time turned out to be 1.77 min.

In the case of `NCc1ccccc1` [BENZYLAMINE], the LC retention time came to 3.59 min.

On to `NCCC(=O)O` [BETA-ALANINE], for which the LC retention time is 0.62 min.

In the case of `CC1=C(/C=C/C(C)=C/C=C/C(C)=C/C=C/C=C(C)/C=C/C=C(C)/C=C/C2=C(C)CCCC2(C)C)C(C)(C)CCC1` [BETA-CAROTENE], the LC retention time worked out at 9.23 min.

Turning to `O=P(O)(O)OC(CO)CO` [BETA-GLYCEROPHOSPHATE], the LC retention time turned out to be 0.67 min.

With `NC(=O)c1ccc[n+](C2OC(COP(=O)(O)OP(=O)(O)OCC3OC(n4cnc5c(N)ncnc54)C(O)C3O)C(O)C2O)c1` (stereo not drawn) [BETA-NICOTINAMIDE ADENINE DINUCLEOTIDE], the LC retention time worked out at 0.78 min.

`C[N+](C)(C)CC(=O)[O-]` [BETAINE]: the LC retention time came out at 0.65 min.

In the case of `C=CC1=C(C)C(=Cc2[nH]c(Cc3[nH]c(C=C4NC(=O)C(C)=C4C=C)c(C)c3CCC(=O)O)c(CCC(=O)O)c2C)NC1=O` [BILIRUBIN], the LC retention time was 12.6 min.

In the case of `C=CC1=C(C)C(C=c2[nH]c(=Cc3[nH]c(C=C4NC(=O)C(C)=C4C=C)c(C)c3CCC(=O)O)c(CCC(=O)O)c2C)=NC1=O` [BILIVERDIN], the LC retention time was 7.99 min.

For `O=C(O)CCCCC1SCC2NC(=O)NC21` (stereo not drawn) [BIOTIN], the LC retention time came out at 5.15 min.

As for `CCCCC(CC)COC(=O)c1ccccc1C(=O)OCC(CC)CCCC` (stereo not drawn) [BIS(2-ETHYLHEXYL)PHTHALATE], the LC retention time stood at 13 min.

`C=C(C)C1CCC2(C(=O)O)CCC3(C)C(CCC4C5(C)CCC(O)C(C)(C)C5CCC43C)C12` (stereo not drawn) [Betulinic acid]: the LC retention time came out at 11.2 min.

Turning to `CCCCCCCCCCCCCCC=COCC(O)COP(=O)([O-])OCC[N+](C)(C)C` (stereo not drawn) [C16_PlasmLPC], the LC retention time worked out at 10.5 min.

For `CCCCCCCCCCCCCCCCCCOCC(O)COP(=O)([O-])OCC[N+](C)(C)C` (stereo not drawn) [C18_LysoPAF], the LC retention time amounted to 10.4 min.

`NCCCCCN` [CADAVERINE]: the LC retention time worked out at 0.55 min.

Take `Cn1c(=O)c2c(ncn2C)n(C)c1=O` [CAFFEINE]: the LC retention time was 4.85 min.

As for `NCCC(=O)NC(Cc1cnc[nH]1)C(=O)O` (stereo not drawn) [CARNOSINE], the LC retention time stood at 0.59 min.

In the case of `NCCOP(=O)(O)OP(=O)(O)OCC1OC(n2ccc(N)nc2=O)C(O)C1O` (stereo not drawn) [CDP-ETHANOLAMINE], the LC retention time worked out at 0.64 min.

`CC(CCC(=O)O)C1CCC2C3C(O)CC4CC(O)CCC4(C)C3CCC12C` (stereo not drawn) [CHENODEOXYCHOLATE]: the LC retention time amounted to 9.15 min.

As for `CC(CCC(=O)O)C1CCC2C3C(O)CC4CC(O)CCC4(C)C3CC(O)C12C` (stereo not drawn) [CHOLATE], the LC retention time came to 8.17 min.

On to `C[N+](C)(C)CCO` [CHOLINE], for which the LC retention time amounted to 0.62 min.

(Values after the RepoRT retention time repository.)
